Results from patent US6727244B2, “Mammalian metabolites of a tachykinin receptor antagonist” (Merck & Co., Inc., priority 2000, dated 2004).

How the values were obtained:
human NK1 receptor = molecular target: T1, human NK1 receptor (Homo sapiens, UniProt P25103); experiment: human NK1 receptor binding assay (125I-substance P, COS or CHO cells)
T1 construct: expressed in transfected cells
Method: To express the cloned human neurokinin-1 receptor (NKIR) transiently in COS, the cDNA for the human NKIR was cloned into the expression vector pCDM9 which was derived from pCDM8 (INVITROGEN) by inserting the ampicillin resistance gene (nucleotide 1973 to 2964 from BLUESCRIPT SK+) into the Sac II site. Transfection of 20 ug of the plasmid DNA into 10 million COS cells was achieved by electroporation in 800 ul of transfection buffer (135 mM NaCl, 1.2 mM CaCl2, 1.2 mM MgCl2, 2.4 mM K2HPO4, 0.6 mM KH2PO4, 10 mM glucose, 10 mM HEPES pH 7.4) at 260 V and 950 uF using the IBI GENEZAPPER (IBI, New Haven, Conn.). The cells were incubated in 10% fetal calf serum, 2 mM glutamine, 100U/ml penicillin-streptomycin, and 90% DMEM media (GIBCO, Grand Island, N.Y.) in 5% CO2 at 37° C. for three days before the binding assay.
To establish a stable cell line expressing the cloned human NK1R, the cDNA was subcloned into the vector pRcCMV (INVITROGEN). Transfection of 20 ug of the plasmid DNA into CHO cells was achieved by electroporation in 800 ul of transfection buffer suplemented with 0.625 mg/ml Herring sperm DNA at 300 V and 950 uF using the IBI GENEZAPPER (IBI). The transfected cells were incubated in CHO media [10 % fetal calf serum, 100 U/ml pennicilin-streptomycin, 2 mM glutamine, 1/500 hypoxanthine-thymidine (ATCC), 90% IMDM media (JRH BIOSClENCES, Lenexa, Kans.), 0.7 mg/ml G418 (GIBCO)] in 5% CO2 at 37° C. until colonies were visible. Each colony was separated and propagated. The cell clone with the highest number of human NK1R was selected for subsequent applications such as drug screening.
The binding assay of human NK1R expressed in either COS or CHO cells is based on the use of ^125I-substance P (^125I-SP, from DU PONT, Boston, Mass.) as a radioactively labeled ligand which competes with unlabeled substance P or any other ligand for binding to the human NK1R. Monolayer cell cultures of COS or CHO were dissociated by the non-enzymatic solution (SPECIALTY MEDIA, Lavallette, N.J.) and resuspended in appropriate volume of the binding buffer (50 mM Tris pH 7.5, 5 mM MnCl2, 150 mM NaCl, 0.04 mg/ml bacitracin, 0.004 mg/ml leupeptin, 0.2 mg/ml BSA, 0.01 mM phosphoramidon) such that 200 ul of the cell suspension would give rise to about 10,000 cpm of specific ^125I-SP binding (approximately 50,000 to 200,000 cells). […] The bound radioactivity was separated from unbound radioactivity by GF/C filter (BRANDEL, Gaithersburg, Md.) which was pre-wetted with 0.1 % polyethylenimine. The filter was washed with 3 ml of wash buffer (50 mM Tris pH 7.5, 5 mM MnCl2, 150 mM NaCl) three times and its radioactivity was determined by gamma counter.

[1] = molecular target: T2, recombinant human CYP isozymes (Homo sapiens, UniProt P08684); experiment: metabolism by microsomes containing recombinant human CYP isozymes; assay type: in vitro ADME; details: parent to M-1 (N-dealkylation); M-1 to M-2 (oxidation); M-3 to M-4 (hydroxylation); M-2 to M-5 (conversion)
T2 construct: host or cells: Baculovirus-infected sf21 insect cells (microsomes)
T2 sequence (P08684 2-503 limits assumed): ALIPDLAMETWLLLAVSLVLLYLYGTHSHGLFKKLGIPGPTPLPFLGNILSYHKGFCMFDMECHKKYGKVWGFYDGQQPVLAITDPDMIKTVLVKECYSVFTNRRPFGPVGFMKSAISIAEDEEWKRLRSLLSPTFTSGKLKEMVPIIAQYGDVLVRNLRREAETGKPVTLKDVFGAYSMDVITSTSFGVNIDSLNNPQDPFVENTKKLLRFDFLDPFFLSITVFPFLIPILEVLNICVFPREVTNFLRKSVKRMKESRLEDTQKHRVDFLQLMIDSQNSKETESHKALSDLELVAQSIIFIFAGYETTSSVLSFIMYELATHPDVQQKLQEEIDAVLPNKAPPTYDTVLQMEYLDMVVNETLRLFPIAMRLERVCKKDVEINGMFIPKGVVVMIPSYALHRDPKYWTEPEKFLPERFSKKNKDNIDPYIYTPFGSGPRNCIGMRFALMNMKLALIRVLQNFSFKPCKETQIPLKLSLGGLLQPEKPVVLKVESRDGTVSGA
Method: Hepatocytes were harvested from male Sprague-Dawley rat livers or human livers and cultured on a matrigel support and treated with 0.1 μM dexamethasone or 50 μM rifampicin, respectively, for 48 hr prior to the addition of the test compounds. A 2.5 mM stock solution of [^14C]2-(R)-(1-(R)-(3,5-bis(trifluoromethyl)-phenyl)ethoxy)-3-(S)-(4-fluoro)phenyl-4-(3-(5-oxo-1H,4H-1,2,4-triazolo)methylmorpholine, [^14C]M-1 or [^14C]M-2 in DMSO was added to the plates such that the final concentration of test compound was 25 μM and DMSO was 1% (v/v). The cultures were incubated for 4, 6 or 24 hr for rat hepatocytes and 48 hr for human hepatocytes. The incubation mixtures (500 μL) contained 10 μM of test compound, 100 mM phosphate buffer pH 7.4, NADPH-regenerating system, microsomes containing expressed CYP isoforms (CYP1A2, CYP2A6, CYP2B6, CYP2C8, CYP2C9, CYP2C19, CYP2D6, CYP2E1 or CYP3A4) and cytochrome P-450 reductase. The reactions were initiated by adding NADP and proceeded at 37° C. for 15-45 min. Acetonitrile extracts from microsomal and hepatocyte incubates were dissolved in 50% aqueous methanol and fractionated by HPLC. The separation was accomplished on a Zorbax RX C8 analytical column (5 μm, 4.6×250 mm). The mobile phase consisted of solvent A (10 mM ammonium acetate in water) and solvent B (7.3 mM ammonium acetate in 92.7% acetonitrile and 7.3% methanol. The column was eluted by a linear gradient from 35 to 80% B over 40 min at a flow rate of 1 mL/min. Fractions of major metabolites were subjected to LC-MS/MS analysis. Further purification was done using isocratic conditions prior to NMR analysis.
The incubation mixtures (500 μL) contained 10 or 25 μM of test compounds, 100 mM phosphate buffer pH 7.4, NADPH-regenerating system (5 mM glucose-6-phosphate, 1 mM NADP and 0.7 I.U/mL glucose 6-phosphate dehydrogenase), 0.5 to 2 mg/mL liver microsomal protein prepared from rats and humans or microsomes from Baculovirus-infected sf21 cells containing 20 to 200 pmol expressed CYP isoforms (CYP1A2, CYP2A6, CYP2B6, CYP2C8, CYP2C9, CYP2C19, CYP2D6, CYP2E1 or CYP3A4) and cytochrome P450 reductase. Stock solutions of the substrates in methanol were made such that final concentration of methanol in the reaction mixture was 3%. The reactions were initiated by adding 50 μL of 10 mM NADP and proceeded at 37° C. for 15-45 min. After incubation, the reactions were terminated by the addition of four volumes of acetonitrile. The suspensions were mixed vigorously and centrifuged at 3000×g for 5 min. The supernatants were dried and redissolved in 50% methanol for HPLC analysis using method A described below.

T1 sequence (P25103 whole entry): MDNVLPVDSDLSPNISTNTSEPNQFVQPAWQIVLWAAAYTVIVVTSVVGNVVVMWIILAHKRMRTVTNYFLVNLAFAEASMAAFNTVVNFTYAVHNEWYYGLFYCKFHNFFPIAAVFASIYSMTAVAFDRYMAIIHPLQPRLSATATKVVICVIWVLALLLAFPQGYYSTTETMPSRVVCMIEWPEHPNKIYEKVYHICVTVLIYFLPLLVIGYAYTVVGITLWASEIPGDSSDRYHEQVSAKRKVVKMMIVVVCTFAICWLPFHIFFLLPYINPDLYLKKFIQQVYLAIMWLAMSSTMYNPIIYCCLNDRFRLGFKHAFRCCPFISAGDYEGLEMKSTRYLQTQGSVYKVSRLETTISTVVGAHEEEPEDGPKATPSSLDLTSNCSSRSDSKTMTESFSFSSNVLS

- IC50 (human NK1 receptor): 1 nM
- CYP isozyme primarily responsible for the metabolic step [1]: CYP3A4
Compound: C[C@@H](O[C@H]1OCCN[C@H]1c1ccc(F)cc1)c1cc(C(F)(F)F)cc(C(F)(F)F)c1 [Metabolite M-1, (2R,3S)-2-[(1R)-1-[3,5-bis(trifluoromethyl)phenyl]ethoxy]-3-(4-fluorophenyl)morpholine]
